These results are taken from publication PMC6696147, “Broad-Spectrum Antiviral Natural Products from the Marine-Derived Penicillium sp. IMB17-046” (Molecules, 2019).

Converted amounts (≈) assume the structure as drawn. Where two headings read alike, the source gives them in different places. A value given as a limit tells only on which side of the number the result lay.

The nature of data set [1]: in vitro. Particulars: human.
A further data set relates to Helicobacter pylori. As to the kind of experiment: Antibacterial assay, broth micro-dilution MIC, H. pylori. It counts as cell-based. The settings on record: for MIC: Helicobacter pylori; for H. pylori MIC, range over strains: clinically isolated H. pylori, strains G27 and 159 together. The procedure:
(§1) The antibacterial activities against H. pylori, S. aureus, B. subtilis, P. aeruginosa, and K. pneumonia were assayed by examining the MIC using the broth micro-dilution method as previously described.
In general terms: Dilution methods test growth across graded concentrations, often in twofold steps.

Another data set relates to Staphylococcus aureus. Kind of data set: Antibacterial assay, broth micro-dilution MIC, S. aureus. The settings on record: read-out: MIC against Staphylococcus aureus. It counts as cell-based. The procedure: as §1
Another data set deals with Bacillus subtilis. As to the kind of experiment: Antibacterial assay, broth micro-dilution MIC, B. subtilis. It counts as cell-based. Particulars: read-out: MIC against Bacillus subtilis. The procedure:
as §1

For a further data set, the system named is Pseudomonas aeruginosa. As to the kind of experiment: Antibacterial assay, broth micro-dilution MIC, P. aeruginosa. Particulars: read-out: MIC against Pseudomonas aeruginosa. The format is cell-based. The procedure: as §1
In another data set the test system is Klebsiella pneumoniae. As to the kind of experiment: Antibacterial assay, broth micro-dilution MIC, K. pneumoniae. It counts as cell-based. The settings on record: read-out: MIC against Klebsiella pneumoniae. As to the method:
as §1

In a further data set the test system is HIV-1. As to the kind of experiment: microbe, parasite or virus in culture. It counts as cell-based. Particulars: Human immunodeficiency virus 1, SUP-T1, 48 h, read-out: HIV-1 IC50.
Data set [2] concerns wild-type and multi-drug resistant HIV-1. More on the design: method as in doi:10.1007/s11426-018-9283-3. Particulars: cited from earlier work.
The nature of data set [3]: Cytotoxicity assay (MTT), uninfected Huh7.5 cells. The settings on record: human, read-out: HCV CC50. It counts as cell-based. As to the method: Cytotoxicity of compounds were assayed for the uninfected 293T-Gluc, SupT1, and Huh7.5 cells. 293T-Gluc and Huh7.5 cells were cultured in Dulbecco’s modified Eagle’s medium supplemented with 10% fetal bovine serum (FBS, Invitrogen). SupT1 cells were cultured in RPMI1640 medium supplemented with 10% FBS. Various concentrations of test compounds (1 μL each well) were added to the 293T-Gluc and SupT1 cells (1 × 10^5 cells/well) in 96-well plates. After incubation at 37 °C for 48 h, 10 μL of CCK-8 reagent was added to the cells and they were incubated for another 4 h. Then, the absorbance of each well was recorded at 450 nm. A cytotoxicity assay for Huh7.5 cells was carried out using the MTT method as described previously.

The next data set has as its system HCV. As to the kind of experiment: Anti-HCV assay. It counts as cell-based. The settings on record: Hepatitis C virus. As to the method: Anti-HCV assays were carried out as described previously.
Data set [4] is described as follows: in vitro. Particulars: human. The source holds these as a separate data set.
Where [5] appears, read: drug-resistant strain 159, read-out: H. pylori MIC, 159.
Setting [6] is: drug-sensitive strain G27, read-out: H. pylori MIC, G27.

`COc1cc(=O)oc(C=CC=CC=CC(C)=CC2(C)OC(C)C(C)(O)C2O)c1C` (single isomer, unassigned; (+)) [Compound 2, (+)-neocitreoviridin] yielded a CC50 in “in vitro [1]” of over 100 µM. Besides, the minimum inhibitory concentration (MIC) (usually the smallest concentration in the dilution series that meets the test's criterion for growth inhibition) was 1 µg/mL (≈ 2.48 µM) in the data set with Helicobacter pylori (setting [5]); 4 µg/mL (≈ 9.94 µM) in the data set on Helicobacter pylori (setting [6]); over 128 µg/mL in the data set with Staphylococcus aureus; over 128 µg/mL with Bacillus subtilis; over 128 µg/mL with Pseudomonas aeruginosa; over 128 µg/mL with Klebsiella pneumoniae. In addition, the “H. pylori MIC, range over strains” value in the data set on Helicobacter pylori lay within 1 to 16 µg/mL. Besides, the IC50 (in general, the concentration that inhibits the measured activity by half) in the data set on HIV-1 is over 10 µM.

Take `C=C(CC[C@@H](C)[C@H]1CC=C2C3=C(CC[C@@]21C)[C@@]1(C)CC[C@H](O)CC1CC3=O)C(C)C` (stereo partly drawn) [Compound 3, 3β-hydroxyergosta-8,14,24(28)-trien-7-one]: in the data set with HIV-1, the IC50 was 3.5 ± 0.8 µM.

In “in vitro [1]”, `O=C1Nc2ccc(Cl)cc2[C@@](C#CC2CC2)(C(F)(F)F)O1` [Efavirenz, reference compound] returned a CC50 of over 100 µM.

With `C=C(CC[C@@H](C)[C@H]1CC[C@H]2C3=C(CC[C@]12C)[C@@]1(C)CC[C@H](O)CC1CC3=O)C(C)C` (stereo partly drawn) [Compound 7, 3β-hydroxyergosta-8,24(28)-dien-7-one], in “in vitro [1]”, the CC50 is over 100 µM. For the same compound, the 50% inhibitory concentration (IC50) in the data set on HIV-1 was over 10 µM.

`Cc1ncc([N+](=O)[O-])n1CCO` [Metronidazole, reference compound]: the MIC came to 16 µg/mL (≈ 93.5 µM) with Helicobacter pylori (setting [5]) and 1 µg/mL (≈ 5.84 µM) in the data set on Helicobacter pylori (setting [6]).

Take `CC(C)[C@H](C)CC[C@](C)(O)[C@H]1C(=O)C[C@H]2[C@@H]3C(=O)C=C4C[C@@H](O)CC[C@]4(C)[C@H]3CC[C@@]21C` [amotsterol D, (20S,24R)-3β,20-dihydroxyergostan-5(6)-en-7,16-dione]: the “effectiveness against HIV-1” value in data set [2] is on record as “low micromolar range”.

As for `CCC[C@H](NC(=O)[C@@H]1[C@H]2CCC[C@H]2CN1C(=O)[C@@H](NC(=O)[C@@H](NC(=O)c1cnccn1)C1CCCCC1)C(C)(C)C)C(=O)C(=O)NC1CC1` [VX-950, reference compound], the CC50 in data set [3] came out at 25.8 ± 3.4 µM. Moreover, the IC50 in the data set on HCV was 0.05 ± 0.03 µM.

`CC[C@H](C)c1nc(OC)c(Cc2c[nH]c3ccccc23)nc1O` [Compound 1, (S)-6-((1H-indol-3-yl)methyl)-3-(sec-butyl)-5-methoxypyrazin-2-ol]: the CC50 in data set [3] was 116 ± 4.9 µM. Besides, the MIC was 16 µg/mL (≈ 51.4 µM) in the data set on Helicobacter pylori (setting [5]); 4 µg/mL (≈ 12.8 µM) in the data set on Helicobacter pylori (setting [6]); over 128 µg/mL in the data set with Staphylococcus aureus; over 128 µg/mL in the data set with Bacillus subtilis; over 128 µg/mL in the data set on Pseudomonas aeruginosa; over 128 µg/mL in the data set with Klebsiella pneumoniae. Further, the “H. pylori MIC, range over strains” value in the data set with Helicobacter pylori was 1 to 16 µg/mL. In addition, the IC50 in the data set with HIV-1 stood at 4.6 ± 0.3 µM; in the data set on HCV, 7.7 ± 0.2 µM.

In turn, `NC(=O)c1ncn([C@@H]2O[C@H](CO)[C@@H](O)[C@H]2O)n1` [Ribavirin, reference compound] came in with a CC50 in the data set “in vitro [4]” of over 100 µM.

`CC(C)[C@@H](C)/C=C/[C@@H](C)[C@H]1CC[C@H]2C3=C[C@@H](O)[C@@]4(O)C[C@@H](O)CC[C@]4(C)[C@H]3CC[C@]12C` [Compound 8, (22E,24R)-24-methyl-5α-cholesta-7,22-dien-3β,5,6β-triol]: the IC50 with HIV-1 worked out at 6.2 ± 0.2 µM.
